Laboratory results from patent US20210223237A1, “COMPOSITIONS AND METHODS FOR STUDYING DRUG METABOLISM” (Boehringer Ingelheim International GmbH, priority 2020, published 2021).
Values joined by “and” are separate entries in the source; they are usually repeats but may differ in a detail not shown here. Equal entries are not always repeated. Marks after values point to notes of the source that are not given here.

Experiments:
CYP2C8 = target: T1, CYP2C8 (Homo sapiens, UniProt P10632)
T1 sequence (P10632 1-490): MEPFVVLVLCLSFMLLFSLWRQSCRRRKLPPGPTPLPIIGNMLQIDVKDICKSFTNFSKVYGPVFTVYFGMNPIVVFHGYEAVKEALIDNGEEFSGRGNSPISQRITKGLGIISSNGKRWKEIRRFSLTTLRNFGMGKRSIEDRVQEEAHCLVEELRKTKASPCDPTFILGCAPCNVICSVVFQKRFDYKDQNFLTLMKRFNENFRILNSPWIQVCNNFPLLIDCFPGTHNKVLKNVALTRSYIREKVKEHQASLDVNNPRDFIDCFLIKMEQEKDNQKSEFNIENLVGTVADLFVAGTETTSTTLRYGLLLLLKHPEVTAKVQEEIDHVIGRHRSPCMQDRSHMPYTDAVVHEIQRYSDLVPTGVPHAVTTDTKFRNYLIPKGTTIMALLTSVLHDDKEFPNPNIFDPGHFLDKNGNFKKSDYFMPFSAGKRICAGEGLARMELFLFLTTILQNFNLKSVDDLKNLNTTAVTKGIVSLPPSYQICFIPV

[1] = Non-specific binding of compounds to magnetizable beads alone; settings: 30 min incubation of beads (5.3×10^9 beads), bioanalysis of supernatant
[2] = Microsomal binding (fu,mic) using HLM-beads; settings: for fu,mic: HLM-beads, compound 1.0 μM, (SD)
in vitro [3] = settings: human
in vitro [4] = settings: human; remark: listed apart in the source
[5] = cited from earlier work
[6] = Microsomal binding (fu,mic) using rapid equilibrium dialysis (RED); settings: compound 1.0 μM, (SD)
UGT2B7 = target: T2, UGT2B7 (Homo sapiens, UniProt P16662); assay: in vitro; settings: for microsomal CLint: pH 7.8; for Km: pH 7.8, Km, Michaelis-Menten modeling
T2 sequence (P16662 24-529): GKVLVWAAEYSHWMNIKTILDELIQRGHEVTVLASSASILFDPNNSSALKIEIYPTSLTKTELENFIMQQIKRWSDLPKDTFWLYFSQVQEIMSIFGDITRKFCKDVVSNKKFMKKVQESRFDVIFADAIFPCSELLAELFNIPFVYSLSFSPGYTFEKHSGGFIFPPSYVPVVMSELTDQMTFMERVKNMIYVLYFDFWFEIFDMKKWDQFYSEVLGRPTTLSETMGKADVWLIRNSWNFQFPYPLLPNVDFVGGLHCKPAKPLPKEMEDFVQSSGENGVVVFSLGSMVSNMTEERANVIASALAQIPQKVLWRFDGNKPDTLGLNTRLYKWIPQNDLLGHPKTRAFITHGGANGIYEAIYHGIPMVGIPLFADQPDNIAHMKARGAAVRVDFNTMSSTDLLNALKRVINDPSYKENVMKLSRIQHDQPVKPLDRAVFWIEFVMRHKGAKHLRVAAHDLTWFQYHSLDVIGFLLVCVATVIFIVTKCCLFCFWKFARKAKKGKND

UGT1A1 [7] = target: T3, UGT1A1 (Homo sapiens, UniProt P22309); assay: in vitro; settings: pH 7.8
T3 sequence (P22309 26-533): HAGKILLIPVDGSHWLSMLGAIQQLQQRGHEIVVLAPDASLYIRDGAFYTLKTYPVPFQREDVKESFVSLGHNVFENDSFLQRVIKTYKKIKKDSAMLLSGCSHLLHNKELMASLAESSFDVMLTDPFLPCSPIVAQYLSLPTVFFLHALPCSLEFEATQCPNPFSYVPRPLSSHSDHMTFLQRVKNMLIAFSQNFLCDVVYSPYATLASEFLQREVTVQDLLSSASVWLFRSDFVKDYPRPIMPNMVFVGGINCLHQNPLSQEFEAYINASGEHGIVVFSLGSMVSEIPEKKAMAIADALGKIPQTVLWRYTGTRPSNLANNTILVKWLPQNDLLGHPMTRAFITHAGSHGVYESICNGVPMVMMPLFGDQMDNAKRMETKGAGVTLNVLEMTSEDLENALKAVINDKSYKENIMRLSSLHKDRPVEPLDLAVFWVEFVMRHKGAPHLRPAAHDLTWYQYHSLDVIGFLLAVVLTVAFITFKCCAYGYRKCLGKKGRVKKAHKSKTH

UGT1A1 [8] = target: T3, UGT1A1; assay: UGT1A1-catalyzed E2 3-glucuronidation kinetics in HLM suspensions vs HLM-beads
[9] = substrate: CC(C)c1cccc(C(C)C)c1O
not read [10] = substrate: CCN(CC)Cc1cc(Nc2ccnc3cc(Cl)ccc23)ccc1O; assay: not read; settings: other: HLM suspensions; substrate inhibition modeling; pH 7.4
not read [11] = substrate: C[C@]12CC[C@@H]3c4ccc(O)cc4CC[C@H]3[C@@H]1CC[C@@H]2O; assay: not read; settings: other: HLM suspensions; allosteric sigmoidal modeling; pH 7.8; 37.0 °C
[12] = human liver microsomes bound to magnetic beads (HLM-beads)
[13] = human liver microsomes (suspension)

Molecule: CCN(CC)Cc1cc(Nc2ccnc3cc(Cl)ccc23)ccc1O [Amodiaquine, amodiaquine]
- Km, times higher with HLM-beads than with HLM suspensions (CYP2C8): approximately 2 ×

Molecule: OCc1ncc2n1-c1ccc(Cl)cc1C(c1ccccc1F)=NC2 [1′OH midazolam, 1′hydroxymidazolam]
- non-specific binding to the beads [1]: not observed

Molecule: CN(C)CCCN1c2ccccc2Sc2ccc(Cl)cc21 [Chlorpromazine, chlorpromazine]
- fu,mic ([2]; HLM 0.50 mg/ml): 0.11 (0.02)
- fu,mic ([2]; HLM […]): 0.79 (0.13)

Molecule: COc1ccc([C@@H]2Sc3ccccc3N(CCN(C)C)C(=O)[C@@H]2OC(C)=O)cc1 [Diltiazem, diltiazem]
- fraction unbound at 5 min, 1 μM (in vitro [3]): 0.99
- fraction unbound at 5 min, 1 μM (in vitro [3]; [12]): 0.97
- fraction unbound at 6 h, 1 μM (in vitro [4]; microsomes): 0.96
- pKa [5]: 9.4
- fu,mic ratio HLM-beads/RED ([2]; HLM 0.50 mg/ml): 1.5
- fu,mic ratio HLM-beads/RED ([2]; HLM 1.0 mg/ml): 1.3
- fu,mic ratio HLM-beads/RED ([2]; HLM […]): 1.0

Molecule: CCCCNC(=O)NS(=O)(=O)c1ccc(C)cc1 [Tolbutamide, tolbutamide]
- pKa [5]: 5.2

Molecule: CCC(C)n1ncn(-c2ccc(N3CCN(c4ccc(OCC5COC(Cn6cncn6)(c6ccc(Cl)cc6Cl)O5)cc4)CC3)cc2)c1=O (centres unmarked) [Itraconazole, itraconazole]
- fraction unbound at 5 min, 1 μM (in vitro [3]; [12]): 0.073
- fraction unbound at 6 h, 1 μM (in vitro [4]): 0.025
- fu,mic ratio HLM-beads/RED ([2]; HLM 0.50 mg/ml): 2.8
- fu,mic ratio HLM-beads/RED ([2]; HLM 1.0 mg/ml): 2.9
- fu,mic ratio HLM-beads/RED ([2]; HLM […]): 0.84
- fu,mic ([2]; HLM 0.50 mg/ml): 0.10 (0.01)
- fu,mic ([2]; HLM […]): 0.24 (0.04)
- fu,mic ([6]; pre-soak method, HLM 0.50 mg/ml): 0.036 (0.005)^b
- fu,mic ([6]; pre-soak method, HLM […]): 0.29 (0.07)^b

Molecule: CN(C)CCCN1c2ccccc2CCc2ccccc21 [Imipramine, imipramine]
- fraction unbound at 6 h, 1 μM (in vitro [4]; microsomes): 0.4

Molecule: Cc1cn([C@H]2C[C@H](N=[N+]=[N-])[C@@H](CO)O2)c(=O)[nH]c1=O [AZT, zidovudine]
- microsomal CLint (UGT2B7; [13]): 0.44 µL/min/mg
- microsomal CLint (UGT2B7): 2.8 µL/min/mg
- Km (UGT2B7; HLM suspensions): 1400 ± 0.1 µM
- Km (UGT2B7; HLM-beads): 490 ± 0.06 µM

Molecule: Cc1nnc2n1-c1ccc(Cl)cc1C(c1ccccc1)=NC2 [Alprazolam]
- fraction unbound at 5 min, 1 μM (in vitro [3]; microsomes): 0.81
- fraction unbound at 6 h, 1 μM (in vitro [4]; microsomes): 0.98
- fu,mic ratio HLM-beads/RED ([2]; HLM 0.50 mg/ml): 0.77
- fu,mic ratio HLM-beads/RED ([2]; HLM 1.0 mg/ml): 0.66
- fu,mic ratio HLM-beads/RED ([2]; HLM […]): 0.82
- fu,mic ([2]; HLM 0.50 mg/ml): 0.78 (0.06)
- fu,mic ([2]; HLM 1.0 mg/ml): 0.68 (0.07)
- fu,mic ([6]; HLM 0.50 mg/ml): 1.0 (0.1)
- fu,mic ([6]; HLM 1.0 mg/ml): 1.0 (0.1)

Molecule: O=C(O)Cc1ccccc1Nc1c(Cl)cccc1Cl [Diclofenac, diclofenac]
- fraction unbound at 5 min, 1 μM (in vitro [3]): 0.94
- fraction unbound at 5 min, 1 μM (in vitro [3]; [12]): 0.87
- fraction unbound at 6 h, 1 μM (in vitro [4]; microsomes): 0.98
- fu,mic ([2]; HLM 0.50 mg/ml): 0.92 (0.03)^a

Molecule: C[C@]12CC[C@@H]3c4ccc(O)cc4CC[C@H]3[C@@H]1CC[C@@H]2O [E2, estradiol]
- microsomal CLint (UGT1A1 [7]; [13]): 59 µL/min/mg
- microsomal CLint (UGT1A1 [7]): 88 µL/min/mg
- V/K or CLint, fold higher in HLM-beads than in HLM suspensions (UGT1A1 [8]): higher
- Vmax, HLM-beads compared with HLM suspensions (UGT1A1 [8]): comparable

B1: UGT1A9 (Homo sapiens) (protein)
chain: GKLLVVPMDGSHWFTMRSVVEKLILRGHEVVVVMPEVSWQLGRSLNCTVKTYSTSYTLEDLDREFKAFAHAQWKAQVRSIYSLLMGSYNDIFDLFFSNCRSLFKDKKLVEYLKESSFDAVFLDPFDNCGLIVAKYFSLPSVVFARGILCHYLEEGAQCPAPLSYVPRILLGFSDAMTFKERVRNHIMHLEEHLLCHRFFKNALEIASEILQTPVTEYDLYSHTSIWLLRTDFVLDYPKPVMPNMIFIGGINCHQGKPLPMEFEAYINASGEHGIVVFSLGSMVSEIPEKKAMAIADALGKIPQTVLWRYTGTRPSNLANNTILVKWLPQNDLLGHPMTRAFITHAGSHGVYESICNGVPMVMMPLFGDQMDNAKRMETKGAGVTLNVLEMTSEDLENALKAVINDKSYKENIMRLSSLHKDRPVEPLDLAVFWVEFVMRHKGAPHLRPAAHDLTWYQYHSLDVIGFLLAVVLTVAFITFKCCAYGYRKCLGKKGRVKKAHKSKTH
- K0.5 [9]: 30 ± 4 μM and 13 ± 2^sig μM

B2: CYP2C8 (Homo sapiens) (protein)
chain: T1 sequence (P10632 1-490)
- Km (not read [10]): 0.732 ± 0.11 µM
- Vmax/Km (not read [10]): 1340 µL/min/mg

B3: UGT1A1 (Homo sapiens) (protein)
chain: T3 sequence (P22309 26-533)
- K0.5 (not read [11]): 13 ± 1 µM
